Measurements reported in patent US20260199323A1, “LIGAND COMPOUNDS FOR E3 UBIQUITIN LIGASE, PROTEIN DEGRADERS DEVELOPED ON BASIS OF LIGAND COMPOUNDS, AND USES THEREOF” (GLUETACS THERAPEUTICS (SHANGHAI) CO., LTD., priority 2021, published 2026).
Read-outs that look alike come from different tables or passages of the source. Each block holds one compound with its values, some of them ahead of it.

What was measured:
PC-9 = experiment: CCK-8 tumor cell proliferation, PC-9; type: cell-based, Human; settings: for IC50: Homo sapiens, PC-9, read-out: IC50 inhibiting proliferation of tumor cells, PC-9; for IC50 for inhibiting the proliferation of tumor cells, PC-9: Table 11, designed based on EGFR inhibitors, 96 h
Description: The tumor cells used herein were cultured in a cell culture medium listed in table 4 at 37° C. in an incubator with 5% CO2.
(§1) After 24 h, 100 μL of the inoculated cells were treated with 0.5 μL of the compounds of the present disclosure (including the compounds in Tables 1 and 3, and compounds of examples) at 10 different successively decreasing concentrations (starting at the highest concentration of 10 μM; 5-fold serial dilutions). After the cells were treated with the compounds of the present disclosure for a period of time, the cell viability detection reagent was added to the culture medium for cell viability assessment according to the instructions provided with the CCK-8 kit. […] The growth inhibition of the compounds of the present disclosure on cells was plotted by Prism Graphpad software, and the IC50 values of the compounds of the present disclosure were calculated therefrom.

SW620 = experiment: CCK-8 tumor cell proliferation, SW620; type: cell-based, Human; settings: for IC50: Homo sapiens, SW-620, Table 18, FAK inhibitor based, SW620, read-out: IC50 inhibiting proliferation of tumor cells, SW620
Description: (§2) The tumor cells used herein were cultured in a cell culture medium listed in table 4 at 37° C. in an incubator with 5% CO2. Prior to experimentation, all cells used were correctly identified by STR profiling, and tested negative for mycoplasma through routine screenings.
as §1, with “IC50 values of the compounds of the present disclosure (including the compounds in Tables 1 and 3, and compounds of examples) were measured using the Meilun Cell Counting Kit-8 kit from Dalian Meilun Biotech Co., Ltd. Assay details are as follows: tumor cells were seeded in a 96-well plate at a density listed in Table 5. After 24” for “After 24”

Mino = experiment: CCK-8 tumor cell proliferation, Mino; type: cell-based, Human; settings: for IC50: Homo sapiens, Table 18, FAK inhibitor based, Mino, read-out: IC50 inhibiting proliferation of tumor cells, Mino
Description: as §2
as §1, with “IC50 values of the compounds of the present disclosure (including the compounds in Tables 1 and 3, and compounds of examples) were measured using the Meilun Cell Counting Kit-8 kit from Dalian Meilun Biotech Co., Ltd. Assay details are as follows: tumor cells were seeded in a 96-well plate at a density listed in Table 5. After 24” for “After 24”

SR = experiment: CCK-8 tumor cell proliferation, SR; type: cell-based, Human; settings: for IC50: Homo sapiens, SR, read-out: IC50 inhibiting proliferation of tumor cells, SR
Description: as §2
as §1, with “IC50 values of the compounds of the present disclosure (including the compounds in Tables 1 and 3, and compounds of examples) were measured using the Meilun Cell Counting Kit-8 kit from Dalian Meilun Biotech Co., Ltd. Assay details are as follows: tumor cells were seeded in a 96-well plate at a density listed in Table 5. After 24” for “After 24”

MDA-MB-231 = experiment: CCK-8 tumor cell proliferation, MDA-MB-231; type: cell-based, Human; design: IC50 for inhibiting the proliferation of tumor cells, MDA-MB-231: scale not given here; settings: for IC50: Homo sapiens, MDA-MB-231, read-out: IC50 inhibiting proliferation of tumor cells, MDA-MB-231
Description: as §2
as §1, with “IC50 values of the compounds of the present disclosure (including the compounds in Tables 1 and 3, and compounds of examples) were measured using the Meilun Cell Counting Kit-8 kit from Dalian Meilun Biotech Co., Ltd. Assay details are as follows: tumor cells were seeded in a 96-well plate at a density listed in Table 5. After 24” for “After 24”

MM.1S = experiment: CCK-8 tumor cell proliferation, MM.1S; type: cell-based
Description: as §2
as §1, with “IC50 values of the compounds of the present disclosure (including the compounds in Tables 1 and 3, and compounds of examples) were measured using the Meilun Cell Counting Kit-8 kit from Dalian Meilun Biotech Co., Ltd. Assay details are as follows: tumor cells were seeded in a 96-well plate at a density listed in Table 5. After 24” for “After 24”

CCRF-CEM = experiment: CCK-8 tumor cell proliferation, CCRF-CEM; type: cell-based, Human; design: IC50 for inhibiting the proliferation of tumor cells, CCRF-CEM: scale not given here; settings: 96 h
Description: as §2
as §1, with “IC50 values of the compounds of the present disclosure (including the compounds in Tables 1 and 3, and compounds of examples) were measured using the Meilun Cell Counting Kit-8 kit from Dalian Meilun Biotech Co., Ltd. Assay details are as follows: tumor cells were seeded in a 96-well plate at a density listed in Table 5. After 24” for “After 24”

CAL-62 = experiment: CCK-8 tumor cell proliferation, CAL-62; type: cell-based, Human; settings: Homo sapiens; Table 18, FAK inhibitor based; CAL-62; read-out: IC50 inhibiting proliferation of tumor cells, CAL-62
Description: as §2
as §1, with “IC50 values of the compounds of the present disclosure (including the compounds in Tables 1 and 3, and compounds of examples) were measured using the Meilun Cell Counting Kit-8 kit from Dalian Meilun Biotech Co., Ltd. Assay details are as follows: tumor cells were seeded in a 96-well plate at a density listed in Table 5. After 24” for “After 24”

- IC50 (PC-9; Table 18, FAK inhibitor based): 1 to 5 µM
- IC50 (SW620): 1 to 5 µM
- IC50 (Mino): 0.5 to 1 µM
SMILES: CNC(=O)c1ccc(Nc2ncc(C(F)(F)F)c(NCc3nccnc3N(C)S(C)(=O)=O)n2)cc1 [Defactinib, reference compound]

- IC50 for inhibiting the proliferation of tumor cells, Mino (Mino; Table 13, designed based on BCR-ABL inhibitors, 72 h): A+
SMILES: Cc1nc(Nc2ncc(C(=O)Nc3c(C)cccc3Cl)s2)cc(N2CCC(N3CCN(Cc4ccc5c(c4)CN(C4CCC(=O)NC4=O)C5=O)CC3)CC2)n1 (stereo not drawn) [GT-03476, N-(2-chloro-6-methylphenyl)-2-((6-(4-(4-((2-(2,6-dioxopiperidin-3-yl)-1-oxoisoindolin-5-yl)methyl)piperazin-1-yl)piperidin-1-yl)-2-methylpyrimidin-4-yl)amino)thiazole-5-carboxamide]

- IC50 (PC-9; Table 15, ALK inhibitor based): 0.1 to 0.5 µM
- IC50 (SR; Table 15, ALK inhibitor based): < 0.05 µM
- IC50 (MDA-MB-231; Table 15, ALK inhibitor based): 0.1 to 0.5 µM
SMILES: Cc1cc(Nc2ncc(Cl)c(Nc3ccccc3S(=O)(=O)C(C)C)n2)c(OC(C)C)cc1N1CCN(Cc2ccc3c(c2)CN(C2CCC(=O)NC2=O)C3=O)CC1 (stereo not drawn) [GT-03529, 3-(5-((4-(4-((5-chloro-4-((2-(isopropylsulfonyl)phenyl)amino)pyrimidin-2-yl)amino)-5-isopropoxy-2-methylphenyl)piperazin-1-yl)methyl)-1-oxoisoindolin-2-yl)piperidine-2,6-dione]

- IC50 (PC-9; Table 15, ALK inhibitor based): 1 to 5 µM
- IC50 (SR; Table 15, ALK inhibitor based): < 0.05 µM
- IC50 (MDA-MB-231; Table 15, ALK inhibitor based): 0.1 to 0.5 µM
SMILES: Cc1cc(Nc2ncc(Cl)c(Nc3ccccc3S(=O)(=O)C(C)C)n2)c(OC(C)C)cc1N1CCC(N2CCN(Cc3ccc4c(c3)CN(C3CCC(=O)NC3=O)C4=O)CC2)CC1 (stereo not drawn) [GT-03531, 3-(5-((4-(1-(4-((5-chloro-4-((2-(isopropylsulfonyl)phenyl)amino)pyrimidin-2-yl)amino)-5-isopropoxy-2-methylphenyl)piperidin-4-yl)piperazin-1-yl)methyl)-1-oxoisoindolin-2-yl)piperidine-2,6-dione]

- IC50 for inhibiting the proliferation of tumor cells, MM.1S (MM.1S; Table 7, designed based on BTK inhibitors, 72 h): A+
- IC50 for inhibiting the proliferation of tumor cells, CCRF-CEM (CCRF-CEM; Table 7, designed based on BTK inhibitors): A+
- IC50 for inhibiting the proliferation of tumor cells, MDA-MB-231 (MDA-MB-231; Table 7, designed based on BTK inhibitors, 96 h): A+
SMILES: Nc1ncnc2c1c(-c1ccc(Oc3ccccc3)cc1)nn2C1CCN(Cc2cc3c(cc2F)C(=O)N(C2CCC(=O)NC2=O)C3)CC1 (stereo not drawn) [GT-03605, 3-(5-((4-(4-amino-3-(4-phenoxyphenyl)-1H-pyrazolo[3,4-d]pyrimidin-1-yl)piperidin-1-yl)methyl)-6-fluoro-1-oxoisoindolin-2-yl)piperidine-2,6-dione]

- IC50 (PC-9; Table 18, FAK inhibitor based): 1 to 5 µM
- IC50 (SW620): 1 to 5 µM
- IC50 (SR; Table 18, FAK inhibitor based): 0.5 to 1 µM
- IC50 (MDA-MB-231; Table 18, FAK inhibitor based): 0.5 to 1 µM
- IC50 (Mino): 0.5 to 1 µM
- IC50 (CAL-62): 0.5 to 1 µM
SMILES: CN(c1nccnc1CNc1nc(Nc2ccc(N3CCN(Cc4ccc5c(c4)CN(C4CCC(=O)NC4=O)C5=O)CC3)cc2)ncc1C(F)(F)F)S(C)(=O)=O (stereo not drawn) [GT-03672, N-(3-(((2-((4-(4-((2-(2,6-dioxopiperidin-3-yl)-1-oxoisoindolin-5-yl)methyl)piperazin-1-yl)phenyl)amino)-5-(trifluoromethyl)pyrimidin-4-yl)amino)methyl)pyrazin-2-yl)-N-methylmethanesulfonamide]

- IC50 for inhibiting the proliferation of tumor cells, PC-9 (PC-9): A+
- IC50 for inhibiting the proliferation of tumor cells, CCRF-CEM (CCRF-CEM; Table 11, designed based on EGFR inhibitors): A+
SMILES: CN(Cc1ccc2c(c1)CN(C1CCC(=O)NC1=O)C2=O)C1CCN(c2ccc(Nc3ncc4nc(Nc5ccccc5)n(C5CCCC5)c4n3)cc2)CC1 (stereo not drawn) [GT-03685, 3-(5-(((1-(4-((9-cyclopentyl-8-(phenylamino)-9H-purin-2-yl)amino)phenyl)piperidin-4-yl)(methyl)amino)methyl)-1-oxoisoindolin-2-yl)piperidine-2,6-dione]

- IC50 (PC-9; Table 18, FAK inhibitor based): 1 to 5 µM
- IC50 (SW620): < 0.05 µM
- IC50 (MDA-MB-231; Table 18, FAK inhibitor based): < 0.05 µM
- IC50 (Mino): 0.1 to 0.5 µM
SMILES: CNC(=O)c1ccccc1Nc1cc(Nc2ccc(N3CCN(Cc4ccc5c(c4F)CN(C4CCC(=O)NC4=O)C5=O)CC3)cc2OC)ncc1C(F)(F)F (stereo not drawn) [GT-03712, 2-((2-((4-(4-((2-(2,6-dioxopiperidin-3-yl)-4-fluoro-1-oxoisoindolin-5-yl)methyl)piperazin-1-yl)-2-methoxyphenyl)amino)-5-(trifluoromethyl)pyridin-4-yl)amino)-N-methylbenzamide]

- IC50 for inhibiting the proliferation of tumor cells, SW620 (SW620; Table 14, designed based on CDK4/6 inhibitors, 96 h): A+
- IC50 for inhibiting the proliferation of tumor cells, CCRF-CEM (CCRF-CEM; Table 14, designed based on CDK4/6 inhibitors): A+
- IC50 for inhibiting the proliferation of tumor cells, SR (SR; Table 14, designed based on CDK4/6 inhibitors, 72 h): A+
SMILES: Cc1nc2c(F)cc(-c3nc(Nc4ccc(N5CCC(N6CCN(Cc7ccc8c(c7)CN(C7CCC(=O)NC7=O)C8=O)CC6)CC5)cn4)ncc3F)cc2n1C(C)C (stereo not drawn) [GT-03719, 3-(5-((4-(1-(6-((5-fluoro-4-(4-fluoro-1-isopropyl-2-methyl-1H-benzo[d]imidazol-6-yl)pyrimidin-2-yl)amino)pyridin-3-yl)piperidin-4-yl)piperazin-1-yl)methyl)-1-oxoisoindolin-2-yl)piperidine-2,6-dione]

- IC50 (PC-9; Table 18, FAK inhibitor based): 1 to 5 µM
- IC50 (SW620): 0.1 to 0.5 µM
- IC50 (SR; Table 18, FAK inhibitor based): < 0.05 µM
- IC50 (MDA-MB-231; Table 18, FAK inhibitor based): < 0.05 µM
- IC50 (Mino): 1 to 5 µM
- IC50 (CAL-62): 0.05 to 0.1 µM
SMILES: CNC(=O)c1ccccc1Nc1cc(Nc2ccc(N3CCC(N(C)Cc4ccc5c(c4F)CN(C4CCC(=O)NC4=O)C5=O)CC3)cc2OC)ncc1C(F)(F)F (stereo not drawn) [GT-03728, 2-((2-((4-(4-(((2-(2,6-dioxopiperidin-3-yl)-4-fluoro-1-oxoisoindolin-5-yl)methyl)(methyl)amino)piperidin-1-yl)-2-methoxyphenyl)amino)-5-(trifluoromethyl)pyridin-4-yl)amino)-N-methylbenzamide]

- IC50 (PC-9; Table 18, FAK inhibitor based): 0.05 to 0.1 µM
- IC50 (SW620): 1 to 5 µM
- IC50 (SR; Table 18, FAK inhibitor based): 0.1 to 0.5 µM
SMILES: CNC(=O)c1ccccc1Nc1cc(Nc2ccc(N3CCC(N(C)Cc4ccc5c(c4)C(=O)N(C4CCC(=O)NC4=O)C5=O)CC3)cc2OC)ncc1C(F)(F)F (stereo not drawn) [GT-03732, 2-((2-((4-(4-(((2-(2,6-dioxopiperidin-3-yl)-1,3-dioxoisoindolin-5-yl)methyl)(methyl)amino)piperidin-1-yl)-2-methoxyphenyl)amino)-5-(trifluoromethyl)pyridin-4-yl)amino)-N-methylbenzamide]

- IC50 for inhibiting the proliferation of tumor cells, PC-9 (PC-9): A+
SMILES: O=C1CCC(N2Cc3cc(CN4CCN(c5ccc(Nc6ncc7nc(Nc8ccccc8)n(C8CCCC8)c7n6)cc5)CC4)c(F)cc3C2=O)C(=O)N1 (stereo not drawn) [GT-03736, 3-(5-((4-(4-((9-cyclopentyl-8-(phenylamino)-9H-purin-2-yl)amino)phenyl)piperazin-1-yl)methyl)-6-fluoro-1-oxoisoindolin-2-yl)piperidine-2,6-dione]

- IC50 (MM.1S; Homo sapiens, MM1.S, Table 18, FAK inhibitor based, MM.1S, read-out: IC50 inhibiting proliferation of tumor cells, MM.1S): 1 to 5 µM
- IC50 (MDA-MB-231; Table 18, FAK inhibitor based): 1 to 5 µM
- IC50 (CAL-62): 1 to 5 µM
SMILES: CN(c1cccc(CNc2nc(Nc3ccc(C4CCN(Cc5ccc6c(c5)CN(C5CCC(=O)NC5=O)C6=O)CC4)cc3)ncc2C(F)(F)F)c1)S(C)(=O)=O (stereo not drawn) [GT-03742, N-(3-(((2-((4-(1-((2-(2,6-dioxopiperidin-3-yl)-1-oxoisoindolin-5-yl)methyl)piperidin-4-yl)phenyl)amino)-5-(trifluoromethyl)pyrimidin-4-yl)amino)methyl)phenyl)-N-methylmethanesulfonamide]

- IC50 for inhibiting the proliferation of tumor cells, PC-9 (PC-9): A+
SMILES: O=C1CCC(N2Cc3cc(CN4CCN(C5CCN(c6ccc(Nc7ncc8nc(Nc9ccccc9)n(C9CCCC9)c8n7)cc6)CC5)CC4)ccc3C2=O)C(=O)N1 (stereo not drawn) [GT-03808, 3-(5-((4-(1-(4-((9-cyclopentyl-8-(phenylamino)-9H-purin-2-yl)amino)phenyl)piperidin-4-yl)piperazin-1-yl)methyl)-1-oxoisoindolin-2-yl)piperidine-2,6-dione]
